Molecules are shown by their SMILES.

The assay concerns the target T1, reconstituted TmAHAS (MI + MS) (Thermotoga maritima, UniProt Q9WZ18).
T1 sequence (Q9WZ18 1-584): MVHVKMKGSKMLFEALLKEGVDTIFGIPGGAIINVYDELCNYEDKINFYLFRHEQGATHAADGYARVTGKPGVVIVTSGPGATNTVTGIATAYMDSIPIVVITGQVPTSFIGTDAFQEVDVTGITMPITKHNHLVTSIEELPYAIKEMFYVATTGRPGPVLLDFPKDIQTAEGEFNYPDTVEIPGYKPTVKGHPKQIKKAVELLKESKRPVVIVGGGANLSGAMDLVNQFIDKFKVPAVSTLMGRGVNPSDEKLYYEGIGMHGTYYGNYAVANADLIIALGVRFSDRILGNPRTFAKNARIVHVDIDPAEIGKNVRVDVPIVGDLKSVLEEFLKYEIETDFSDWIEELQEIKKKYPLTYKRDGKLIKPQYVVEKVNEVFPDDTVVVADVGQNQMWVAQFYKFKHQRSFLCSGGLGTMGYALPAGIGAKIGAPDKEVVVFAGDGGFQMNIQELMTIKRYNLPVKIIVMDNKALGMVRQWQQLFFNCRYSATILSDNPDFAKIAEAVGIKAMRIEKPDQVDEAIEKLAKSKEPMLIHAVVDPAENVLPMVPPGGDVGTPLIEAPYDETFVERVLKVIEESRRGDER
T1 sequence (Q9WZ19 1-171 partner): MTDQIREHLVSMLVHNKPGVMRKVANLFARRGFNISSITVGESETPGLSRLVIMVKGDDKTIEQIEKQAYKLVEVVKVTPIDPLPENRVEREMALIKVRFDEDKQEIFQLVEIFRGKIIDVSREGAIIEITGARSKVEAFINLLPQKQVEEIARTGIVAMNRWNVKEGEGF
In words: acetaldehyde. The format is biochemical. The following applies: reconstituted catalytic and regulatory subunits; 80 °C, anaerobic.

As to `CC(=O)C(=O)O` [pyruvate], the “acetaldehyde (PDC) and acetolactate (AHAS) production from pyruvate” value is “The reconstitution of the enzyme TmAHAS resulted in considerable and reproducible increase of both PDC”.

(Values after PMC5613635 (Biochemistry and Biophysics Reports, 2016).)
